≈ marks a conversion by molar mass, not a printed value.

Details in one series: not given
What is called solubility is the concentration that dissolves in the medium under given conditions. A low value points to a poorly soluble substance. Compound `CC(=O)OC[C@H]1O[C@@](COC(C)=O)(O[C@H]2O[C@H](COC(C)=O)[C@@H](OC(C)=O)[C@H](OC(C)=O)[C@H]2OC(C)=O)[C@@H](OC(C)=O)[C@@H]1OC(C)=O` gave a solubility of 1.34 mM (≈ 910 µg/mL). In other words, the millimolar range. For the compound `Cc1cc(O)c(Cl)c(C)c1Cl`, the solubility stood at 1.05 mM (≈ 200 µg/mL). Same read-out and setting: to `NC(=O)OCC(Cl)(Cl)Cl` belongs 52 mM (≈ 10000 µg/mL); to `O=C(OC[C@H]1O[C@@H](Oc2ccccc2CO)[C@H](O)[C@@H](O)[C@@H]1O)c1ccccc1`, 1.28 mM (≈ 500 µg/mL).

`Nc1ccc(S(=O)(=O)O)c2cc(S(=O)(=O)O)ccc12` displayed a solubility of 551 mM (≈ 167000 µg/mL).

Take `C=CCC(C(=O)NC(N)=O)C(C)C` (stereo unspecified): the solubility was 1.79 mM (≈ 330 µg/mL). In the case of `CN(Cc1cc(Br)cc(Br)c1N)C1CCCCC1`, the solubility was 10.6 mM (≈ 4000 µg/mL). Compared with the last compound, the solubility is about 5.9-fold higher.

`CC(=O)c1ccc(O)c(O)c1O`: the solubility was 9.51 mM (≈ 1600 µg/mL).

In the case of `Cn1ccc(=O)c2ccccc21`, the solubility was 104 mM (≈ 16600 µg/mL). On the same count and under the same terms, to `CCOc1ccc2nc3cc(N)ccc3c(N)c2c1` belongs 263 mM (≈ 66600 µg/mL); to `O=C([O-])c1ccccc1C(=O)O.[K+]`, 408 mM. Still for that read-out and setting: to `CC(=O)Oc1ccc(Br)cc1C(=O)O` belongs 2.57 mM (≈ 667 µg/mL). Still for that read-out and setting: next, `CCC(C)C1(CC)C(=O)N=C([O-])NC1=O.[Na+]` (stereo unspecified): 1420 mM; `CC(O)C(Cl)(Cl)Cl` (stereo unspecified): 175 mM (≈ 28600 µg/mL); `C#CCOC(=O)/C=C(C)/C=C/CC(C)CCCC(C)C` (stereo unspecified): 0.0189 mM (≈ 5.22 µg/mL). In turn, `O=S(=O)([O-])CS(=O)(=O)[O-].[Ca+2]` yielded a solubility of 1340 mM.

With `Nc1nc(N)c(O)c(O)n1`, the solubility was found to be 20.1 mM (≈ 2850 µg/mL). This solubility is about 67-fold lower than that of the compound before.

For the compound `O=Cc1ccccc1O[C@@H]1O[C@H](CO)[C@@H](O)[C@H](O)[C@H]1O`, the solubility amounted to 63.3 mM (≈ 18000 µg/mL). Consider `COC(=O)CC(C)=O`, for which the solubility is 4310 mM (≈ 500000 µg/mL). `Nc1nc(N)c(O[C@@H]2O[C@H](CO)[C@@H](O)[C@H](O)[C@H]2O)c(=O)[nH]1` showed a solubility of 32.9 mM (≈ 10000 µg/mL). This solubility is about 130-fold lower than that of the compound before. Same read-out and setting: next, `CN1C2CCCC1CC(=O)C2`: 2610 mM (≈ 400000 µg/mL); `OC(CI)CI`: 40.1 mM (≈ 12500 µg/mL); `CC(C)(C)OOC(C)(C)C`: 0.684 mM (≈ 100 µg/mL). Still for that read-out and setting: next, `NC(=O)N(CCO)/N=C/c1ccc([N+](=O)[O-])o1`: 2.06 mM (≈ 500 µg/mL). The same measure, in the same setting: next, `CC(C[N+](C)(C)C)OC(N)=O.[Cl-]` (stereo unspecified): 3180 mM; `Cc1cc(NS(=O)(=O)c2ccc(N)cc2)sn1`: 83.9 mM (≈ 22600 µg/mL). `CCC(C)C(C)(COC(N)=O)COC(N)=O` (stereo unspecified): the solubility worked out at 4.31 mM (≈ 1000 µg/mL). For the compound `CN1C(=O)OC(C)(C)C1=O`, the solubility was 349 mM (≈ 50000 µg/mL). `C=C1CCO[C@]2([C@H](O)[C@@](C)(O)CO)NC(=O)[C@@]1(O)NC2=O` yielded a solubility of 635 mM (≈ 192000 µg/mL). `C=C[C@H]1C[N@@]2CC[C@H]1C[C@H]2C12Nc3ccccc3C1(O)CCO2` (stereo partly specified) came in with a solubility of 2.14 mM (≈ 667 µg/mL).

Take `CC1(C)[C@H]2CC[C@]1(C)C(=O)[C@H]2O`: the solubility is 119 mM (≈ 20000 µg/mL). On the same count and under the same terms, to `CN(C)CCc1ccc(O)cc1` belongs 42.4 mM (≈ 7000 µg/mL).

Compound `CCCCN(CCN(CCCC)C(=O)N1CCOCC1)C(=O)N1CCOCC1` had a solubility of 1250 mM (≈ 500000 µg/mL). The same measure, in the same setting: next, `CCN(CC)C(=O)CC(C)C`: 254 mM (≈ 40000 µg/mL). In turn, `OC[C@@H](O)[C@H](O)[C@@H](O)CO` came in with a solubility of 4220 mM (≈ 642000 µg/mL). Still for that read-out and setting: to `O=C(C(Cl)Cl)N(CCO)Cc1ccc(Oc2ccc([N+](=O)[O-])cc2)cc1` belongs 0.00751 mM (≈ 3 µg/mL). Same read-out and setting: to `Nc1ccc(S(=O)(=O)O)c2ccc(S(=O)(=O)O)cc12` belongs 22.8 mM (≈ 6900 µg/mL).

As for `CC(=O)C1CCOC1=O` (stereo unspecified), the solubility was 1560 mM (≈ 200000 µg/mL).

Staying with this series, now noted: 20 °C.
In turn, `CC(N)c1ccccc1` (stereo unspecified) returned a solubility of 347 mM (≈ 42000 µg/mL). Compound `CCCOc1ccc([N+](=O)[O-])cc1N` registered a solubility of 0.693 mM (≈ 136 µg/mL). On the same count and under the same terms, to `CC(=O)N(O)CCCCCNC(=O)CCC(=O)N(O)CCCCCNC(=O)CCC(=O)N(O)CCCCCN` belongs 21.4 mM (≈ 12000 µg/mL).

Compound `CC(=O)N(C)N(C(=O)C(=O)N(C)C)c1ccccc1` came in with a solubility of 292 mM (≈ 76900 µg/mL). This solubility lies about 14-fold higher than the previous one. The compound `CC(O)(P(=O)(O)O)P(=O)(O)O` yielded a solubility of 3350 mM (≈ 690000 µg/mL).

On to `CC(C)(C)C(O)C(Oc1ccc(Cl)cc1)n1cncn1` (stereo unspecified), for which the solubility worked out at 0.406 mM (≈ 120 µg/mL).

On to `Cc1ccc(C(C)C)c(O)c1C(=O)O`, for which the solubility turned out to be 0.515 mM (≈ 100 µg/mL). This solubility and that of the compound before are within 1.5-fold of each other. The same measure, in the same setting: to `N=C(NCCCCCCNC(=N)NC(=N)Nc1ccc(Cl)cc1)NC(=N)Nc1ccc(Cl)cc1` belongs 1.58 mM (≈ 800 µg/mL). `Clc1ncnc2[nH]cnc12` yielded a solubility of 32.4 mM (≈ 5000 µg/mL). This solubility is about 21-fold higher than that of the compound before.

In turn, `CCSc1nnc(C(C)(C)C)c(=O)n1N` displayed a solubility of 1.84 mM (≈ 420 µg/mL).

Staying with this series, now noted: 22 °C.
As for `O=C(OCCOCCO)c1ccccc1Nc1cccc(C(F)(F)F)c1`, the solubility is 0.00433 mM (≈ 1.6 µg/mL).

Turning to `Nc1nc(N)nc(-c2ccccc2)n1`, the solubility worked out at 3.2 mM (≈ 600 µg/mL).

The series is the same for the next values; noted with them: 25 °C.
Compound `CO[C@H]1O[C@H](CNC(=O)N(CCCl)N=O)[C@@H](O)[C@H](O)[C@H]1O` displayed a solubility of 27.5 mM (≈ 9000 µg/mL). On to `O=C(O)[C@H](O)[C@@H](O)[C@H](O)[C@H](O)CO`, for which the solubility was 1610 mM (≈ 316000 µg/mL).

Regarding `C[C@H]1O[C@H](O[C@H]2CC[C@H](n3ccc(NC(=O)c4ccc(NC(=O)[C@@](C)(N)CO)cc4)nc3=O)O[C@@H]2C)[C@H](O)[C@@H](O)[C@@H]1N(C)C`, the solubility stood at 3.23 mM (≈ 2000 µg/mL). `O=C1CCC(=O)N1Cl` showed a solubility of 107 mM (≈ 14300 µg/mL). Take `C[C@](N)(Cc1ccc(O)c(O)c1)C(=O)O`: the solubility came out at 47.3 mM (≈ 10000 µg/mL). The same measure, in the same setting: next, `CCCOC(=O)c1cc(O)c(O)c(O)c1`: 16.5 mM (≈ 3500 µg/mL); `O=[N+]([O-])c1ccc(C=NO)o1`: 6.41 mM (≈ 1000 µg/mL); `NC1(C(=O)O)CCCC1`: 387 mM (≈ 50000 µg/mL). Consider `CCCn1cnc2c1c(=O)n(CCCCC(C)=O)c(=O)n2C`, for which the solubility came out at 104 mM (≈ 32000 µg/mL). `O=c1[nH]c(=O)n([C@H]2C[C@H](O)[C@@H](CO)O2)cc1I`: the solubility came to 5.65 mM (≈ 2000 µg/mL). For `Cn1c([N+](=O)[O-])cnc1COC(N)=O`, the solubility stood at 14.3 mM (≈ 2870 µg/mL). Same read-out and setting: to `CC1(C)CC(=O)CC(=O)C1` belongs 29.7 mM (≈ 4160 µg/mL); to `OCc1cc(Br)ccc1O`, 621 mM (≈ 126000 µg/mL). The compound `Nc1ncnc2c1ncn2[C@]1(CO)O[C@H](CO)[C@@H](O)[C@H]1O` showed a solubility of 26.9 mM (≈ 8000 µg/mL). Still for that read-out and setting: next, `S=P(N1CC1)(N1CC1)N1CC1`: 1000 mM (≈ 190000 µg/mL); `C/C=C\C(=O)OC1C[C@H]2O[C@@H]3C=C(C)C(=O)C[C@]3(C)[C@]1(C)C21CO1` (stereo partly specified): 1.2 mM (≈ 400 µg/mL); `NC(=O)c1cnccn1`: 122 mM (≈ 15000 µg/mL). The same measure, in the same setting: to `O=C1CN=C(c2ccccc2Cl)c2cc([N+](=O)[O-])ccc2N1` belongs 0.317 mM (≈ 100 µg/mL); to `C=C(C)Cn1c(N)cc(=O)n(C)c1=O`, 102 mM (≈ 20000 µg/mL).

As for `NC(Cc1cc(Br)c(O)c(Br)c1)C(=O)O` (stereo in doubt), the solubility was determined as 11.8 mM (≈ 4000 µg/mL). Against the preceding compound, the solubility is about 8.6-fold lower. The same measure, in the same setting: next, `O=C(c1ccc(F)cc1)C1CCN(CCn2c(=O)[nH]c3ccccc3c2=O)CC1`: 0.0253 mM (≈ 10 µg/mL); `CCC(O)(COC(N)=O)c1ccccc1` (stereo unspecified): 119 mM (≈ 25000 µg/mL); `CN1C(=O)CCS(=O)(=O)C1c1ccc(Cl)cc1` (stereo unspecified): 9.13 mM (≈ 2500 µg/mL). For the compound `CN1CCN(C(c2ccccc2)c2ccccc2)CC1`, the solubility is under 3.75 mM. Still for that read-out and setting: to `Cc1cc(O)c(C(C)C)cc1Cl` belongs 5.42 mM (≈ 1000 µg/mL). The compound `NS(=O)(=O)c1cc2c(cc1C(F)(F)F)NC=NS2(=O)=O` displayed a solubility of 152 mM (≈ 50000 µg/mL). This solubility lies about 28-fold higher than the previous one. On the same count and under the same terms, next, `O=C(C(=O)c1cc([N+](=O)[O-])ccc1O)c1cc([N+](=O)[O-])ccc1O`: 0.301 mM (≈ 100 µg/mL).

Still in this series, the particulars now being: 26 °C.
`O=C(O)CCSCCC(=O)O` registered a solubility of 209 mM (≈ 37200 µg/mL).

The series is the same for the next values; noted with them: 30 °C.
Turning to `Nc1ccc(S(=O)(=O)NC(=O)c2ccccc2)cc1`, the solubility is 1.12 mM (≈ 310 µg/mL).

In turn, `COCCOc1c(OC)cc(Cc2cnc(N)nc2N)cc1OC` gave a solubility of 7.93 mM (≈ 2650 µg/mL).

The same series, now with this note: pH 5.5.
In the case of `Cc1cnc(NS(=O)(=O)c2ccc(N)cc2)nc1`, the solubility is 1.51 mM (≈ 400 µg/mL).

The values above are taken from the OPERA property sets (Mansouri et al. 2018).
